{"source": "patent US4405608A", "about": "“Novel peptide” (Novo Industri A/S, priority 1981, dated 1983)", "test": "Toxicology: repeated subcutaneous administration to cats", "type": "in vivo", "settings": "repeated s.c. administration of increasing doses up to 16 μg/kg body weight", "note": "No end group written: not given here.", "data": [{"sequence": "RSLQNTEEKSRSFPAPQTDPLDDPDQMTED [GRPP]", "values": [{"measurement": "adverse effects", "result": "did not cause any adverse effects"}]}]}
